Experimental findings from patent US8158621B2, “Methods of treating or preventing autoimmune diseases with 2,4-pyrimidinediamine compounds” (Rigel Pharmaceuticals, Inc., priority 2002, dated 2012) are described below.

SMILES strings stand for the structures. Values joined by “and” are separate entries in the source; they are usually repeats but may differ in a detail not shown here. Equal entries are not always repeated. Where two headings read alike, the source gives them in different places. A value given as a limit tells only on which side of the number the result lay.

Data set [1] concerns FcγRI-mediated degranulation. Kind of data set: FcγRI-mediated degranulation (anti-human IgG Fab activation). In kind it is cell-based. The note with it: cells not primed with IgE, activated with rabbit anti-human IgG Fab fragment.
A short description of data set [2]: Mouse Reverse Passive Arthus reaction (RPA reaction). In kind it is in vivo, C57BL/6 mice. The following applies: oral. In a few lines: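 C57BL/6 mice dosed with compound before challenge, pretreatment time set by each compound's PK; rabbit anti-OVA IgG (50 μg/mouse) given intradermally, then ovalbumin 20 mg/kg i.v. with 1% Evans blue. Dorsal skin edema and hemorrhage read by dye extravasation at 4 h; purified polyclonal rabbit IgG as control.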

In data set [3] the test system is Primary T-cells. The experiment in a line: Primary T-cell cytokine production (αCD3/αCD28): IL-2. The following applies: read-out: 1° T-Cell IL2 IC50. Type of data set: cell-based, human. In a few lines: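 IL-2 in 18 hr supernatants measured by ELISA against a standard curve or by Luminex multiplex, with IC50 derived relative to solvent-only wells. Non-adherent human donor lymphocytes were preincubated 30 min with compound, then moved to wells coated with αCD3 (5 μg/ml) and αCD28 (10 μg/ml).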

Data set [4] deals with Primary T-cells. The experiment in a line: Primary T-cell cytokine production (αCD3/αCD28): GMSCF. The note with it: read-out: 1° T-Cell GMSCF IC50. In kind it is cell-based, human. On the procedure: (§1) 2E8-4E8 PBMC or proliferating T cells grown in rIL-2 from healthy human donors were suspended in PBS were spun down (1500 rpm, 8-10 minutes) and resuspended in 100 ml RPMI Complete media (1% Pen-Strep, 1% L-Glutamine, 10 mM HEPES). The cells were plated in T175 flasks (37° C., 5% CO2) and monocytes were allowed to adhere for 2-3 hours. After monocyte attachment, non-adherent cells were harvested, counted by hemocytometer, washed several times with PBS then resuspended in Yssels Complete Media (Modified IMDM Media with 1% Human AB Serum, 1% Pen-Strep, 1% L-Glutamine, 10 mM HEPES) at […]. 90 uL of the cell dilution were then added to compounds diluted to 2× in Yssel's media and incubated for 30 minutes at 37° C. (5% CO2). After this preincubation step the compound/cell mixture was transferred to stimulation plates, as described below.
(§2) Stimulation plates were prepared by coating 96 well plates with 5 μg/ml αCD3 (BD PharMingen, Catalog #555336)+10 μg/ml αCD28 (Beckman Coulter, Catalog #IM1376) in PBS (no Ca^2+/Mg^2+) at 37° C. (5% CO2) for at 3-5 hours. After incubation with the stimulation antibodies, the cocktail was removed and the plates washed 3 times with PBS prior to addition of the primary T cell/compound mixture.
(§3) The compound/cell mixture was transferred to the stimulation plates and incubated for 18 hr at 37° C. (5% CO2). After the cell stimulation, ˜150 μl supernatant were transferred from each well into 96-well filter plates (Coming PVDF Filter Plates) spun down (2000 rpm, 2-3 minutes) and either used immediately for ELISA or LUMINEX measurements or frozen down at −80° C. for future use.
(§4) Luminex immunoassay multiplexing for TNF, IL-2, GMSCF, IL-4 and IFNg was performed essentially as described by the manufacturer (Upstate Biotechnology). Essentially 50 uL of sample was diluted into 50 uL assay diluent and 50 uL incubation buffer, then incubated with 100 uL of the diluted detection antibody for 1 hr at RT in the dark. The filter plate was washed 2× in Wash Buffer, then incubated with 100 uL of the diluted secondary reagent (SAV-RPE) for 30 min at RT in the dark. Finally the plates were washed 3 times and bead identification and RPE fluorescent measured by the Luminex instrument.
(§5) Varied concentrations of compound were compared to solvent only to determine the inhibition of T-cell activation IC50 of each compound.

Data set [5] relates to Primary T-cells. Kind of data set: Primary T-cell cytokine production (αCD3/αCD28): IL-4. Type of data set: cell-based, human. The following applies: read-out: 1° T-Cell IL4 IC50. On the procedure: as §1, §2, §3, §4, §5
Data set [6] relates to Primary T-cells. Kind of data set: Primary T-cell cytokine production (αCD3/αCD28): IFNg. The note with it: read-out: 1° T-Cell IFNg IC50. Type of data set: cell-based, human. On the procedure:
as §1, §2, §3, §4, §5

Data set [7] deals with cultured human mast cells (CHMC). Kind of data set: CHMC low cell density ionomycin activation: tryptase assay. In kind it is cell-based.
Data set [8] has as its system bone marrow derived mast cells (BMMC). The experiment in a line: BMMC high cell density IgE activation: hexosaminidase. In kind it is cell-based, mouse.
Setting [9] is: 100 mg/kg, pretreatment time 1 hrs.
Where [10] appears, read: low cell density, read-out: CHMC Ionomycin Tryptase.
Setting [11] is: high cell density, read-out: BMMC anti-IgE Hexos.
Where [12] appears, read: 100 mg/kg, pretreatment time 0.5 hrs.
Setting [13] is: 100 mg/kg, pretreatment time 2 hrs.
Setting [14] is: Low Density CHMC, ionomycin activation, tryptase release, read-out: CHMC Ionomycin Tryptase IC50.
Setting [15] is: High Density, read-out: BMMC anti-IgE hexos.
[16] abbreviates: 100 mg/kg, pretreatment time 0.5 hrs + 4 hours.
Where [17] appears, read: 100 mg/kg, pretreatment time 2 hrs + 4 hours.
Where [18] appears, read: 50 mg/kg, pretreatment time 1 hrs.
Setting [19] is: 200 mg/kg, 60 minutes prior to challenge.
Where [20] appears, read: 200 mg/kg, pretreatment time 1 hrs.

Consider `CNC(=O)COc1cccc(Nc2ncc(F)c(Nc3ccc(OC(F)(F)F)c(Cl)c3)n2)c1` [Compound R920410], for which the “inhibition of FcγRI-mediated degranulation” value in data set [1] is “inhibit FcγRI-mediated degranulation”. In addition, the “% inhibition to vehicle control Edema Size ± SEM” value in data set [2] (setting [9]) came to 42.6 ± 15.1%. Further, the IC50 in the data set on Primary T-cells [3] stood at 3360 nM; in the data set on Primary T-cells [4], 3200 nM; in the data set on Primary T-cells [5] it was 546 nM; with Primary T-cells [6] it was 4310 nM.

`CC1(C)Oc2ccc(Nc3nc(Nc4cc(Cl)cc(Cl)c4)ncc3F)cc2NC1=O` [Compound R927064]: the IC50 in data set [7] (setting [10]) was 7240 nM; in data set [8] (setting [11]) it was 5 nM; in the data set with Primary T-cells [3] it was > 10000 nM; in the data set on Primary T-cells [4], > 10000 nM; in the data set on Primary T-cells [6] it was > 10000 nM.

Turning to `CNC(=O)COc1cccc(Nc2ncc(F)c(Nc3ccc4c(n3)NC(=O)C(C)(C)O4)n2)c1` [Compound R940347], in data set [1], the “inhibition of FcγRI-mediated degranulation” value is “inhibit FcγRI-mediated degranulation”. This molecule came in with an inhibition of edema in data set [2] (100 mg/kg, 2 hours prior to challenge) of 89%. Moreover, the “% inhibition to vehicle control Edema Size ± SEM” value was 36.7 ± 22.4% in data set [2] (setting [12]); 48.2 ± 5.7% and 48% in data set [2] (setting [9]); 88.9 ± 9.1% and 89% in data set [2] (setting [13]). The IC50 turned out to be 1890 nM with Primary T-cells [3], 1610 nM in the data set on Primary T-cells [4], 212 nM in the data set on Primary T-cells [5] and 1670 nM in the data set with Primary T-cells [6].

Regarding `OCCCn1ncc2cc(Nc3ncc(F)c(Nc4ccc(Cl)c(Cl)c4)n3)ccc21` [Compound R935391], the IC50 was > 10000 nM in data set [7] (setting [10]) and 250 nM in data set [8] (setting [11]).

As to `CNC(=O)COc1cccc(Nc2ncc(F)c(Nc3ccc4c(c3)NCCO4)n2)c1` [Compound R921219], the IC50 in the data set with Primary T-cells [3] worked out at 546 nM.

For `Fc1cnc(Nc2ccc3c(c2)OCCO3)nc1Nc1ccc2c(c1)OCCO2` [Compound R926109], the IC50 in data set [7] (setting [14]) came out at 5500 nM; in data set [8] (setting [15]) it was 600 nM.

Consider `COc1ccc(Nc2ncc(F)c(Nc3ccc(OC)c(OC)c3)n2)cc1OC` [Compound R926110], for which the IC50 is > 10000 nM in data set [7] (setting [14]) and 1000 nM in data set [8] (setting [15]).

`CC1(C)Oc2ccc(Nc3ncc(F)c(Nc4ccc5c(c4)NC(=O)C(C)(C)O5)n3)cc2NC1=O` [Compound R940350]: the “inhibition of FcγRI-mediated degranulation” value in data set [1] is on record as “inhibit FcγRI-mediated degranulation”. The “% inhibition to vehicle control Edema Size ± SEM” value in data set [2] (setting [12]) is on record as −15.6 ± 27.2%; in data set [2] (setting [13]) it was 38.9 ± 24.3%. For the same molecule, the “Plasma Concentration ± SEM (ng/ml) Exposure = Pretreatment Time + 4 hours” value (shortened to “Plasma Concentration ± SEM”) in data set [2] (setting [16]) came out at 176 ± 58 ng/mL; in data set [2] (100 mg/kg, pretreatment time 1 hrs + 4 hours), 129 ± 55 ng/mL; in data set [2] (setting [17]), 96 ± 28 ng/mL. The IC50 was 2990 nM with Primary T-cells [3], 2450 nM in the data set with Primary T-cells [4], 501 nM in the data set on Primary T-cells [5] and 2470 nM in the data set on Primary T-cells [6].

As for `CNC(=O)COc1cccc(Nc2ncc(F)c(Nc3ccc4c(c3)NC(=O)C(F)(F)O4)n2)c1` [Compound R921303], the “inhibition of FcγRI-mediated degranulation” value in data set [1] was “inhibit FcγRI-mediated degranulation”. Also, the “dose-dependent inhibition of edema formation” value turned out to be 65.4% in data set [2] (50 mg/kg), 81.2% in data set [2] (100 mg/kg) and 100% in data set [2] (200 mg/kg). In addition, the “% inhibition to vehicle control Edema Size ± SEM” value in data set [2] (setting [18]) is 64.1 ± 13.3% and 65.4%; in data set [2] (setting [9]), 80.5 ± 9.8% and 81.2%; in data set [2] (200 mg/kg, pretreatment time 0.5 hrs), 100 ± 0%; in data set [2] (setting [20]), 100 ± 0% and 100%; in data set [2] (200 mg/kg, pretreatment time 2 hrs), 93.3 ± 4.4%. Moreover, the “inhibition of edema formation” value in data set [2] (setting [19]) is 100%; in data set [2] (200 mg/kg, pretreatment time 30 minutes) it was 100%; in data set [2] (200 mg/kg, pretreatment time 120 minutes), 93.6%. For the same molecule, the “Plasma Concentration ± SEM” value in data set [2] (200 mg/kg, pretreatment time 0.5 hrs + 4 hours) was found to be 3703 ± 785 ng/mL; in data set [2] (200 mg/kg, pretreatment time 2 hrs + 4 hours), 2678 ± 496 ng/mL. The IC50 is 1020 nM in the data set with Primary T-cells [3], 1180 nM in the data set on Primary T-cells [4], 366 nM with Primary T-cells [5] and 1280 nM in the data set with Primary T-cells [6].

Turning to `Nc1cccc(Nc2ncc(F)c(Nc3cccc(N)c3)n2)c1` [Compound R921302], in data set [1], the “inhibition of FcγRI-mediated degranulation” value is “inhibit FcγRI-mediated degranulation”. Besides, the “inhibition of edema formation” value in data set [2] (50 mg/kg, 60 minutes prior to Ab/Ag challenge) is reported as 49.9%; in data set [2] (100 mg/kg, 60 minutes prior to Ab/Ag challenge) it was 93.2%; in data set [2] (setting [19]) it was 99.1%. In addition, the “% inhibition to vehicle control Edema Size ± SEM” value in data set [2] (setting [18]) was 50.0 ± 6.4% and 49.9%; in data set [2] (setting [12]), 89.44 ± 4.8%; in data set [2] (setting [9]), 82.1 ± 10.9% and 92.3 ± 4.2% and 93.2%; in data set [2] (setting [20]), 99.1 ± 0.9% and 99.1%. The “inhibition of edema (therapeutic)” value in data set [2] (100 mg/kg, 30 minutes post-challenge) is given as 77.5%. In addition, the IC50 stood at 5180 nM in the data set on Primary T-cells [3], 3210 nM in the data set on Primary T-cells [4], 245 nM in the data set on Primary T-cells [5] and 3900 nM in the data set on Primary T-cells [6].

With `CNC(=O)COc1cccc(Nc2ncc(F)c(Nc3cccc(O)c3)n2)c1` [Compound R926508], in the data set on Primary T-cells [3], the IC50 was found to be 917 nM.

Regarding `Oc1cccc(Nc2ncc(F)c(Nc3cccc(O)c3)n2)c1` [Compound R921218], the values for the IC50 (in data set [8] (setting [15]); in the data set on Primary T-cells [3]) were 133 nM and 3240 nM, respectively. Moreover, the “inhibition of FcγRI-mediated degranulation” value in data set [1] is given as “inhibit FcγRI-mediated degranulation”.

On to `CC1(C)Oc2ccc(Nc3nc(Nc4ccc5cn[nH]c5c4)ncc3F)cc2NC1=O` [Compound R940363], for which the IC50 in data set [7] (setting [10]) was > 10000 nM. Besides, the “% inhibition to vehicle control Edema Size ± SEM” value is −16.4 ± 10.9% in data set [2] (setting [12]); 67.6 ± 12.1% and 61 ± 8% in data set [2] (setting [9]); 52.3 ± 22.7% in data set [2] (setting [13]). The “Plasma Concentration ± SEM” value in data set [2] (setting [16]) came out at 32 ± 10 ng/mL; in data set [2] (setting [17]), 37 ± 18 ng/mL.

For `COc1ccc(Nc2ncc(F)c(Nc3cccc(O)c3)n2)cc1OC` [Compound R926113], the IC50 in data set [8] (setting [15]) was determined as 650 nM.

Regarding `CNC(=O)COc1cccc(Nc2ncc(F)c(Nc3ccc4c(n3)NC(=O)CO4)n2)c1` [Compound R921304], the IC50 was found to be 2770 nM in the data set with Primary T-cells [3], 1570 nM with Primary T-cells [4], 366 nM in the data set with Primary T-cells [5] and 2890 nM with Primary T-cells [6].
